{"source": "patent US20030187048A1", "about": "“Method for inhibiting skin lesion formation using histamine as the active ingredient” (priority 1991, published 2003)", "key": {"[1]": {"tested_on": "aphthous stomatitis lesions (canker sores)", "conditions": "for Mean percentage decay rates of lesions for each patient: standardized over 24 hour period", "method": "Treatment consisted of topical application five times per day for a period of five days., with daily evaluation by the patient and clinician. Lesion decay rates (decrease in lesion size over time) of Groups C and E were grouped together and compared to Group B, the placebo Group.\nAssignment of subjects within groups to the three concentrations was unknown to the investigator.\nThe decay rate was calculated by first computing the percentage decrease in size of the lesion over time and then standardizing the decay rate over an exact 24 hour period."}, "[2]": {"tested_on": "herpetic stomatitis lesions (fever blisters or cold sores)", "method": "(§1) The composition of the present invention includes initial preparation of a gel base by adding 0.8% CARBOPOL 940, which is a vinyl polymer, to distilled water. This mixture was allowed to stand for several hours until the polymer was wetted and a gel was formed. This mixture then was blended by means of a ordinary high speed mixer, such as a Lightning Labmaster II until a homogenous mixture is formed. At this point, a neutralizing and emulsifying agent such as an amino alcohol was added, forming an emulsion. […] This composition then was applied topically to various types of lesions, as subsequently described. […] Propylparaben or methylparaben may be used as a preservative. For “unidose” dispensers containing only two to three drops, no preservatives are used, as it is known that preservatives in ophthalmic solutions frequently cause undesirable side effects. The term semi-synthetic water soluble polymer as used herein includes hydroxy methylcellulose or carboxy methylcellulose. Carbopol is widely available in different viscosities."}, "[3]": {"tested_on": "aphthous ulcers (canker sores)", "conditions": "0.0067% IEP gel; aphthous stomatitis", "method": "as §1"}, "[4]": {"tested_on": "Photodermatitis (second degree sunburn)", "conditions": "for Avg blister/hr: from count at 65 hours; for Discomfort on Lotion or Gel Application / General Discomfort: scored 1 (none) to 5 (worst)", "method": "Treatment consisted of topical application of all lotion or gel concentrations to their respective, randomly assigned quadrants ever 30 minutes for the first 2 hours following the irradiation period, followed by lotion or gel or applications every hour for four hours, then lotion or gel applications three times a day until 65 hours elapsed post 2-z irradiation. Photographs were taken during the treatment period and upon the formation of identifiable blisters, the numbers of blisters in each quadrant were recorded at three times during-the treatment period with cessation of lotion or gel application and data collection at the 65 hours point as exfoliation (peeling) of the outer layers of the epidermis began at 70 hours.\nSubjective evaluation involved an estimate of pain/discomfort following lotion or gel application in each quadrant as well as a comparative general discomfort level for each quadrant during the treatment period. Pain/discomfort was scored from 1 (none) to 5 (worst)."}, "[5]": {"conditions": "0.0067% IEP gel, herpes labialis"}, "[6]": {"conditions": "0.0045% IEP, lower right quadrant"}, "[7]": {"conditions": "0.0067% IEP, upper left quadrant"}}, "note": "“And” between values parts separate entries of the source, which are not always exact repeats. Identical values can stand only once. Like-named read-outs stand apart in the source and are kept apart here.", "data": [{"smiles": "NCCc1c[nH]cn1", "note": "[IEP, 1H-imidazole-4-ethanamine,phosphate]", "values": [{"measurement": "Mean percentage decay rate of lesions, Conc. Mean", "setting": "[1]; 0.0067% gel, 3 patients", "result": 74.1, "unit": "%"}, {"measurement": "Mean percentage decay rates of lesions for each patient", "setting": "[1]; 0.0067% gel", "result": "100.0% and 53.8% and 68.4%"}, {"measurement": "Mean percentage decay rate of lesions, Conc. Mean", "setting": "[1]; 0.0275% gel, 2 patients", "result": 83.5, "unit": "%"}, {"measurement": "Mean percentage decay rates of lesions for each patient", "setting": "[1]; 0.0275% gel", "result": "104.0% and 62.9%"}, {"measurement": "Reducing lesion size over time vs placebo (analysis of variance)", "setting": "[1]; Groups C and E (0.0067%, 0.0275%) combined, p<.O1", "result": "significantly more effective"}, {"measurement": "Untoward events or significant complications", "setting": "[1]; in vivo", "result": "No untoward events or significant complications"}, {"measurement": "Burning, reduction after 1 app.", "setting": "[2]; [5]", "result": 63, "unit": "%"}, {"measurement": "Burning, reduction after 1 day", "setting": "[2]; [5]", "result": 92, "unit": "%"}, {"measurement": "Estimated number of applications needed to eliminate clinical symptoms", "setting": "[2]; [5]", "result": 5}, {"measurement": "Itching, reduction after 1 app.", "setting": "[2]; [5]", "result": "%60"}, {"measurement": "Itching, reduction after 1 day", "setting": "[2]; [5]", "result": 97, "unit": "%"}, {"measurement": "Pain, reduction after 1 app.", "setting": "[2]; [5]", "result": 58, "unit": "%"}, {"measurement": "Pain, reduction after 1 day", "setting": "[2]; [5]", "result": 87, "unit": "%"}, {"measurement": "Percentage decrease in healing time compared to untreated episode", "setting": "[2]; [5]", "result": 49, "unit": "%"}, {"measurement": "Percentage of patients who experienced lesion abortion", "setting": "[2]; [5]", "result": 60, "unit": "%"}, {"measurement": "Size, reduction after 1 app.", "setting": "[2]; [5]", "result": 10, "unit": "%"}, {"measurement": "Size, reduction after 1 day", "setting": "[2]; [5]", "result": 32, "unit": "%"}, {"measurement": "Spreading, reduction after 1 app.", "setting": "[2]; [5]", "result": 40, "unit": "%"}, {"measurement": "Spreading, reduction after 1 day", "setting": "[2]; [5]", "result": 62, "unit": "%"}, {"measurement": "Swelling, reduction after 1 app.", "setting": "[2]; [5]", "result": "%27"}, {"measurement": "Swelling, reduction after 1 day", "setting": "[2]; [5]", "result": 72, "unit": "%"}, {"measurement": "Fraction of total patients who experienced the abortion of lesions", "setting": "[2]; 0.0067% gel applied at first sensation, both treatment groups (herpes labialis and aphthous ulcers)", "result": "Approximately two-thirds"}, {"measurement": "Burning, reduction after 1 app.", "setting": "[3]", "result": 20, "unit": "%"}, {"measurement": "Burning, reduction after 1 day", "setting": "[3]", "result": 40, "unit": "%"}, {"measurement": "Estimated number of applications needed to eliminate clinical symptoms", "setting": "[3]", "result": 9}, {"measurement": "Pain, reduction after 1 app.", "setting": "[3]", "result": 73, "unit": "%"}, {"measurement": "Pain, reduction after 1 day", "setting": "[3]", "result": 80, "unit": "%"}, {"measurement": "Percentage decrease in healing time compared to untreated episode", "setting": "[3]", "result": 67, "unit": "%"}, {"measurement": "Percentage of patients who experienced lesion abortion", "setting": "[3]", "result": 67, "unit": "%"}, {"measurement": "Size, reduction after 1 app.", "setting": "[3]", "result": 23, "unit": "%"}, {"measurement": "Size, reduction after 1 day", "setting": "[3]", "result": 43, "unit": "%"}, {"measurement": "Swelling, reduction after 1 app.", "setting": "[3]", "result": 20, "unit": "%"}, {"measurement": "Swelling, reduction after 1 day", "setting": "[3]", "result": 50, "unit": "%"}, {"measurement": "Total # of blisters at 42 hrs", "setting": "[4]; [6]", "result": 7}, {"measurement": "Total # of blisters at 52 hrs", "setting": "[4]; [6]", "result": 7}, {"measurement": "Total # of blisters at 65 hrs", "setting": "[4]; [6]", "result": 14}, {"measurement": "Avg blister/hr", "setting": "[4]; [6]", "result": 0.215, "unit": "blister/hr"}, {"measurement": "Discomfort on Lotion or Gel Application", "setting": "[4]; 0.0045% lotion or gel", "result": 2}, {"measurement": "General Discomfort", "setting": "[4]; 0.0045% lotion or gel", "result": 1}, {"measurement": "Total # of blisters at 52 hrs", "setting": "[4]; [7]", "result": 2}, {"measurement": "Total # of blisters at 65 hrs", "setting": "[4]; [7]", "result": 10}, {"measurement": "Avg blister/hr", "setting": "[4]; [7]", "result": 0.154, "unit": "blister/hr"}, {"measurement": "Total # of blisters at 42 hrs", "setting": "[4]; 0.0067% IEP, upper left quadrant, hours post irradiation", "result": 2}, {"measurement": "Discomfort on Lotion or Gel Application", "setting": "[4]; 0.0067% lotion or gel", "result": 1}, {"measurement": "General Discomfort", "setting": "[4]; 0.0067% lotion or gel", "result": 1}, {"measurement": "Treatment effect vs placebo, total rate of blister formation", "setting": "[4]; active lotion or gel (0.0045% and 0.0067% combined), p<0.05", "result": "statistically significant treatment effect"}, {"measurement": "Untoward effects", "setting": "[4]; in vivo", "result": "no untoward effects"}]}]}
